For this series the following is noted: from C=CCOCC(c1ccc([C@H](C)Nc2ncc3c(n2)N([C@@H](C)CC=C)C(=O)OC3)cc1)N1CCN(C(=O)OC(C)(C)C)CC1; rcm bond; 18-membered ring; Hoveyda-Grubbs II (0.1 eq); DCE; 8.24 mM; 60.0 °C; 9.0 h.

`C[C@@H]1Nc2ncc3c(n2)N(C(=O)OC3)[C@@H](C)CC=CCOCC(N2CCN(C(=O)OC(C)(C)C)CC2)c2ccc1cc2` (stereo partly shown) had a ring closure, yield after HPLC of 27.6%.

These data come from patent publication US20250049809A1, “INHIBITORS OF MUTANT IDH1 AND IDH2” (Board of Regents, The University of Texas System, priority 2023, published 2025).
